Measured values as given in PubChem BioAssay AID192 (DTP/NCI, 2004).
“And” between values parts separate entries of the source, which are not always exact repeats. Equal values may be shown once. Inconclusive results and toxic doses are left out. The calls were made as follows: active = survival T/C of 150% or more; inactive = T/C below 125% in these data.

Tested on: BDF1 mice, B16 melanoma ip, median survival T/C
Test: NCI In Vivo Anticancer Drug Screen. Data for tumor model B16 Melanoma (intraperitoneal) in B6D2F1 (BDF1) mice
Conditions: endpoint: median survival time, higher = longer survival
Summary of the method: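 Values are ratios of treated (T) to vehicle-control (C) measurements of survival or tumor size in tumor-bearing mice.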

[1] = dose: 100.0 mg/kg/injection, schedule: Q04DX003 (ip), vehicle: saline with Tween-80
[2] = dose: 100.0 mg/kg/injection, schedule: Q01DX009 (ip), vehicle: Klucel (hydroxypropylcellulose) (HPC)
[3] = dose: 200.0 mg/kg/injection, schedule: Q01DX009 (ip), vehicle: Klucel (hydroxypropylcellulose) (HPC)
[4] = dose: 400.0 mg/kg/injection, schedule: Q01DX009 (ip), vehicle: Klucel (hydroxypropylcellulose) (HPC)
[5] = dose: 25.0 mg/kg/injection, schedule: Q01DX009 (ip), vehicle: Klucel (hydroxypropylcellulose) (HPC)
[6] = dose: 50.0 mg/kg/injection, schedule: Q01DX009 (ip), vehicle: Klucel (hydroxypropylcellulose) (HPC)
[7] = dose: 50.0 mg/kg/injection, schedule: Q01DX009 (ip), vehicle: saline
[8] = dose: 100.0 mg/kg/injection, schedule: Q01DX009 (ip), vehicle: saline
[9] = dose: 200.0 mg/kg/injection, schedule: Q01DX009 (ip), vehicle: saline
[10] = dose: 12.5 mg/kg/injection, schedule: Q01DX009 (ip), vehicle: saline with Tween-80
[11] = dose: 25.0 mg/kg/injection, schedule: Q01DX009 (ip), vehicle: saline with Tween-80
[12] = dose: 50.0 mg/kg/injection, schedule: Q01DX009 (ip), vehicle: saline with Tween-80
[13] = dose: 200.0 mg/kg/injection, schedule: Q01DX009 (ip), vehicle: saline with Tween-80
[14] = dose: 400.0 mg/kg/injection, schedule: Q01DX009 (ip), vehicle: saline with Tween-80
[15] = dose: 6.25 mg/kg/injection, schedule: Q01DX009 (ip), vehicle: saline
[16] = dose: 12.5 mg/kg/injection, schedule: Q01DX009 (ip), vehicle: saline
[17] = dose: 25.0 mg/kg/injection, schedule: Q01DX009 (ip), vehicle: saline
[18] = dose: 3.12 mg/kg/injection, schedule: Q01DX009 (ip), vehicle: saline
[19] = dose: 100.0 mg/kg/injection, schedule: Q04DX003 (ip), vehicle: saline
[20] = dose: 200.0 mg/kg/injection, schedule: Q04DX003 (ip), vehicle: saline
[21] = dose: 400.0 mg/kg/injection, schedule: Q04DX003 (ip), vehicle: saline
[22] = dose: 100.0 mg/kg/injection, schedule: Q01DX009 (ip), vehicle: saline with Tween-80
[23] = dose: 100.0 mg/kg/injection, schedule: Q04DX003 (ip), vehicle: Klucel (hydroxypropylcellulose) (HPC)
[24] = dose: 200.0 mg/kg/injection, schedule: Q04DX003 (ip), vehicle: Klucel (hydroxypropylcellulose) (HPC)
[25] = dose: 400.0 mg/kg/injection, schedule: Q04DX003 (ip), vehicle: Klucel (hydroxypropylcellulose) (HPC)
[26] = dose: 12.5 mg/kg/injection, schedule: Q01DX009 (ip), vehicle: Klucel (hydroxypropylcellulose) (HPC)

Measured: T/C

CC(C)(C)OC(=O)NC(CCCCNC(=O)C(F)(F)F)C(=O)ON1C(=O)CCC1=O (centres undefined)
inactive: dose: 25.0 mg/kg/injection, schedule: Q04DX003 (ip), vehicle: saline with Tween-80 114 % of control | dose: 50.0 mg/kg/injection, schedule: Q04DX003 (ip), vehicle: saline with Tween-80 115 % of control | [1] 90 % of control

C=C1C(=O)OC2CC(C)C3C=CC(=O)C3CC12 (centres undefined)
inactive: dose: 0.5 mg/kg/injection, schedule: Q01DX009 (ip), vehicle: Klucel (hydroxypropylcellulose) (HPC) 101 % of control | dose: 1.0 mg/kg/injection, schedule: Q01DX009 (ip), vehicle: Klucel (hydroxypropylcellulose) (HPC) 109 % of control | dose: 2.0 mg/kg/injection, schedule: Q01DX009 (ip), vehicle: Klucel (hydroxypropylcellulose) (HPC) 101 % of control

COC(=O)c1ccccc1NC(=O)Nc1ccccc1
inactive: [2] 110 % of control | [3] 105 % of control | [4] 99 % of control

CCc1ccccc1NC(=O)Nc1ccc(OC)cc1
inactive: [5] 95 % of control | [6] 87 % of control

Nc1ccccc1O
inactive: [7] 93 % of control and 99 % of control | [8] 101 % of control and 93 % of control | [9] 91 % of control and 94 % of control

O=C(NCCCl)NCCCl
inactive: dose: 5.0 mg/kg/injection, schedule: Q01DX009 (ip), vehicle: Klucel (hydroxypropylcellulose) (HPC) 94 % of control | dose: 10.0 mg/kg/injection, schedule: Q01DX009 (ip), vehicle: Klucel (hydroxypropylcellulose) (HPC) 102 % of control | [10] 95 % of control | dose: 20.0 mg/kg/injection, schedule: Q01DX009 (ip), vehicle: Klucel (hydroxypropylcellulose) (HPC) 88 % of control | [11] 95 % of control | dose: 40.0 mg/kg/injection, schedule: Q01DX009 (ip), vehicle: Klucel (hydroxypropylcellulose) (HPC) 91 % of control | [12] 100 % of control | dose: 80.0 mg/kg/injection, schedule: Q01DX009 (ip), vehicle: Klucel (hydroxypropylcellulose) (HPC) 102 % of control | dose: 160.0 mg/kg/injection, schedule: Q01DX009 (ip), vehicle: Klucel (hydroxypropylcellulose) (HPC) 94 % of control | [13] 95 % of control | dose: 320.0 mg/kg/injection, schedule: Q01DX009 (ip), vehicle: Klucel (hydroxypropylcellulose) (HPC) 91 % of control | [14] 102 % of control

CC(=O)OCCC/C(=C\c1ccc2ccccc2c1)[N+](=O)[O-]
inactive: [15] 100 % of control | [16] 95 % of control | [17] 91 % of control | [7] 95 % of control | [8] 93 % of control

COc1ccc2c3c1OC1C4(CCC5C(C2)N(CC2CC2)CCC351)OCCO4 (centres undefined)
inactive: [17] 97 % of control | [7] 97 % of control | [8] 90 % of control

Cc1cc2c(cc1C)C(=O)c1ccccc1C2=O
inactive: [17] 91 % of control | [7] 97 % of control | [8] 94 % of control

CN1CCC(C=C2c3ccccc3CCc3ccccc32)C1 (centres undefined)
inactive: dose: 1.56 mg/kg/injection, schedule: Q01DX009 (ip), vehicle: saline 102 % of control | [18] 100 % of control | [17] 102 % of control

O=C(O)C1C2CC(O)C(C2)C1C(=O)O (centres undefined)
inactive: [19] 100 % of control and 94 % of control | [20] 100 % of control and 91 % of control | [21] 94 % of control

CC(=N/NC(N)=S)/C(C)=N/NC(N)=S
inactive: [8] 118 % of control | [9] 97 % of control

O=C1c2ccccc2C(=O)c2c1ccc(C(=O)O)c2-c1ccc2ccccc2c1
inactive: [2] 103 % of control | [3] 99 % of control | [4] 96 % of control

CCOC(=O)CCOc1ccc(Cl)cc1
inactive: [22] 101 % of control | [13] 102 % of control | [14] 96 % of control

CCN(CC)C(=O)C1CN2CCc3cc(OC)c(OC)cc3C2CC1O (centres undefined)
inactive: [17] 90 % of control | [7] 100 % of control | [8] 100 % of control | [9] 102 % of control | dose: 400.0 mg/kg/injection, schedule: Q01DX009 (ip), vehicle: saline 100 % of control

CCCCCCn1c(O)c(C=N)c(=O)[nH]c1=O
inactive: [2] 95 % of control | [3] 96 % of control | [4] 112 % of control

O=[N+]([O-])c1cccc(S(=O)(=O)N2CCN(S(=O)(=O)c3cccc([N+](=O)[O-])c3)C2)c1
inactive: [23] 109 % of control | [24] 102 % of control | [25] 94 % of control

Cc1ccc(-c2cc(-c3ccccc3)no2)cc1
inactive: [23] 94 % of control | [24] 100 % of control | [25] 94 % of control

C1CC[N-]CC1.CC(=N\O)/C(C)=N/O.CC(=N\O)/C(C)=N/O.C[CH-]CC.[Co+2]
inactive: [5] 102 % of control | [6] 108 % of control

C[C@]12CCC(=O)C=C1CC[C@@H]1[C@@H]2[C@@H](O)C[C@@]2(C)[C@H]1CC[C@]2(O)C(=O)CO
inactive: dose: 40.0 mg/kg/injection, schedule: Q02DX009 (ip), vehicle: Klucel (hydroxypropylcellulose) (HPC) 87 % of control | dose: 80.0 mg/kg/injection, schedule: Q02DX009 (ip), vehicle: Klucel (hydroxypropylcellulose) (HPC) 102 % of control | dose: 160.0 mg/kg/injection, schedule: Q02DX009 (ip), vehicle: Klucel (hydroxypropylcellulose) (HPC) 92 % of control

CN(C)CCCn1c2c(c3ccccc31)CCCCCC2
inactive: [18] 119 % of control | [15] 100 % of control | [16] 100 % of control | [17] 113 % of control | [7] 94 % of control

CCCCCOc1ccc(C(=O)CC(=O)OCC)cc1
inactive: [2] 93 % of control | [3] 106 % of control | [4] 93 % of control

BrCc1ccc2c3c(ccc(CBr)c13)CC2
inactive: [26] 103 % of control | [5] 98 % of control | [6] 96 % of control | [12] 112 % of control | [2] 100 % of control | [22] 122 % of control | [1] 107 % of control | [13] 95 % of control | dose: 200.0 mg/kg/injection, schedule: Q04DX003 (ip), vehicle: saline with Tween-80 112 % of control | dose: 400.0 mg/kg/injection, schedule: Q04DX003 (ip), vehicle: saline with Tween-80 105 % of control

COc1ccc(-c2nc3cc(Cl)ccc3c(=O)o2)cc1
inactive: [2] 101 % of control | [3] 115 % of control

NC(=O)c1cc(N2CC2)c([N+](=O)[O-])cc1[N+](=O)[O-]
inactive: dose: 5.0 mg/kg/injection, schedule: Q01DX009 (ip), vehicle: saline 104 % of control | dose: 10.0 mg/kg/injection, schedule: Q01DX009 (ip), vehicle: saline 109 % of control | dose: 20.0 mg/kg/injection, schedule: Q01DX009 (ip), vehicle: saline 95 % of control

COC1C(O)C(C)OC(O[C@@H]2C[C@H]3CC[C@@H]4[C@H](CC[C@]5(C)[C@@H](C6=CC(=O)OC6)CC[C@]45O)[C@@]3(C)[C@H](O)C2)C1O (some centres undefined)
inactive: [26] 96 % of control | [5] 87 % of control | [6] 95 % of control | [2] 98 % of control

CC1C=CCC(C)(C)C1 (centres undefined)
inactive: dose: 50.0 mg/kg/injection, schedule: Q01DX009 (ip), vehicle: other 96 % of control | [2] 111 % of control | dose: 100.0 mg/kg/injection, schedule: Q01DX009 (ip), vehicle: other 92 % of control | [19] 88 % of control | [3] 104 % of control | [20] 97 % of control | [4] 105 % of control | [21] 90 % of control

Cc1cc(SCC(=O)c2ccc(Br)cc2)cc(C)[o+]1
inactive: [15] 111 % of control and 122 % of control | [16] 112 % of control and 119 % of control | [17] 98 % of control and 118 % of control | [7] 106 % of control | [8] 95 % of control

CCc1ccc(NC2=NCCO2)cc1
inactive: [10] 102 % of control | [11] 97 % of control | [12] 91 % of control

COc1cc2c(cc1OC)C(OC)N(C)c1c-2ccc2cc3c(cc12)OCO3 (centres undefined)
inactive: [11] 122 % of control
